{"source": "ChEMBL document CHEMBL3301361", "about": "“Experimental in vitro DMPK and physicochemical data on a set of publicly disclosed compounds”", "data": [{"test": "physchem", "conditions": "pH 7.4 buffer", "units": {"solubility thermodynamic": "µM"}, "values": [{"smiles": "Cc1cc(C)cc(-c2[nH]c3sc(C(C)(C)C(=O)N4C5CCC4CC5)cc3c2CCN2CCC(C(=O)N3CCOCC3)C(C)C2)c1", "note": "(stereo not given)", "solubility thermodynamic": 33.1}, {"smiles": "CS(=O)(=O)c1cccc(CNc2nc(Nc3ccc4c(c3)CCC(=O)N4)ncc2C(F)(F)F)c1", "solubility thermodynamic": 0.5}, {"smiles": "CCN(C(=O)Cc1ccc(S(C)(=O)=O)cc1)C1CCN(CCC(c2ccccc2)C2CCN(S(=O)(=O)CC)CC2)CC1", "note": "(stereo not given)", "solubility thermodynamic": 457}, {"smiles": "COc1cc(N2CCN(C(=O)[C@H](C)O)CC2)ccc1Nc1ncc(Cl)c(-c2cnc3ccccn23)n1", "solubility thermodynamic": 1.5}, {"smiles": "CC(=O)Nc1ccc(Br)cc1", "solubility thermodynamic": 832}, {"smiles": "CCCNc1nc2ccccc2c(=O)[nH]1", "solubility thermodynamic": 537}, {"smiles": "CNC(=O)[C@@H](NC(=O)[C@H](CC(C)C)[C@@H](Sc1ccccc1)C(=O)NO)C(C)(C)C", "solubility thermodynamic": 83.2}, {"smiles": "CC(C)Oc1cc(OCCN2CCOCC2)cc2ncnc(Nc3c(Cl)ccc4c3OCO4)c12", "solubility thermodynamic": 4.4}, {"smiles": "CC(C)N1CCN(Cc2cnc(-c3ccc(C(=O)Nc4ccccc4N)cc3)c(C#N)c2)CC1", "solubility thermodynamic": 1350}, {"smiles": "Cc1cc(OC2CCN(CC3CCN([C@@](C)(Cc4ccc(F)cc4)C(=O)O)CC3)CC2)ccc1Cl", "solubility thermodynamic": 204}, {"smiles": "N#Cc1c(C2CCCNC2)cc(-c2c(O)cccc2OCC2CC2)nc1N", "note": "(stereo not given)", "solubility thermodynamic": 8.1}, {"smiles": "CC(=O)N(C1=C(NCCO)C(=O)c2ccccc2C1=O)c1cccc(Br)c1", "solubility thermodynamic": 11.7}, {"smiles": "COc1ccc(NC(=O)c2ccccn2)cc1", "solubility thermodynamic": 676}, {"smiles": "O=C(c1ccc(F)cc1)C1CCN(C(=O)c2ccc(OC(F)(F)F)cc2)CC1", "solubility thermodynamic": 11.5}, {"smiles": "COc1cc(C2CCNCC2)ccc1Nc1ncc(Cl)c(-c2cnc3ccccn23)n1", "solubility thermodynamic": 44.7}, {"smiles": "COc1ccc(Cl)c(Nc2ncnc3cc(OCCN4CCN(C(C)=O)CC4)cc(OC(C)C)c23)n1", "solubility thermodynamic": 42.7}, {"smiles": "CCN1CCN(Cc2ccc(-c3cc4c(N[C@H](C)c5ccccc5)ncnc4[nH]3)cc2)CC1", "note": "[AEE-788]", "solubility thermodynamic": 58.9}, {"smiles": "O=C(NC1C2CC3CC(C2)CC1C3)[C@H]1CCCN1Cc1ccc(Cl)cc1", "note": "(stereo not given in full)", "solubility thermodynamic": 21.4}, {"smiles": "CCn1c2ccccc2c2cc(NC(=O)c3cc(C)on3)ccc21", "solubility thermodynamic": 2.5}, {"smiles": "COc1ccc(/C=C\\c2cc(OC)c(OC)c(OC)c2)cc1NC(=O)[C@@H](N)CO", "note": "[OMBRABULIN]", "solubility thermodynamic": 1510}, {"smiles": "CC(C)(C)OC(=O)N1C[C@@H]2CC[C@H]1CN2c1ncc(OCc2ccc(S(C)(=O)=O)cc2)cn1", "solubility thermodynamic": 7.1}, {"smiles": "CN(c1ccnc(Nc2cc(N3CCOCC3)nc(N3CCOCC3)c2)n1)c1cccc2[nH]ncc12", "solubility thermodynamic": 0.8}, {"smiles": "CCn1cnc(-c2ccccc2)c1-c1nc2c(N)ncnc2s1", "solubility thermodynamic": 170}, {"smiles": "Cc1cc(C)cc(-c2[nH]c3sc(C(C)(C)C(=O)N4C5CCC4CC5)cc3c2[C@H](C)CNC(=O)N2CCC(c3ccncc3)CC2)c1", "solubility thermodynamic": 0.6}, {"smiles": "O=C(O)c1cc2ccc(F)cc2n1Cc1ccc(Cl)c(Cl)c1", "solubility thermodynamic": 182}, {"smiles": "O=C(c1ccccc1)N1CCc2ccccc21", "solubility thermodynamic": 91.2}, {"smiles": "CCSc1nc2c(N)ncnc2[nH]1", "solubility thermodynamic": 436}, {"smiles": "COC(=O)N[C@H](C(=O)N1CCC[C@H]1c1nc(-c2ccc(-c3ccc(-c4c[nH]c([C@@H]5CCCN5C(=O)[C@@H](NC(=O)OC)C(C)C)n4)cc3)cc2)c[nH]1)C(C)C", "solubility thermodynamic": 10.2}, {"smiles": "CNC(=O)[C@@H](C)Oc1cccc2ncnc(Nc3ccc4c(cnn4Cc4ccccn4)c3)c12", "solubility thermodynamic": 6}, {"smiles": "C[C@@H](CN(C)C(=O)CO)Oc1cccc2ncnc(Nc3ccc(OCc4ccccn4)c(Cl)c3)c12", "solubility thermodynamic": 8.9}, {"smiles": "COc1ccc(N(C)C(=O)c2ccc3nc(-c4ccccc4)c(-c4ccccc4)nc3c2)cc1", "solubility thermodynamic": 0.7}, {"smiles": "COc1cc2ncnc(Nc3cccc(Cl)c3F)c2cc1CN(C(C)C)[C@@H](C)C(N)=O", "solubility thermodynamic": 1}, {"smiles": "COc1cc(S(N)(=O)=O)c(OC)cc1N", "solubility thermodynamic": 93.3}, {"smiles": "Nc1ccccc1NC(=O)c1ccc(C2CCN(Cc3ccc(C(=O)NC4CC4)cc3)CC2)cc1", "solubility thermodynamic": 6.6}, {"smiles": "CC1(C)Oc2ncnc(N)c2N=C1c1ccc(C23CCC(C(=O)O)(CC2)CC3)cc1", "solubility thermodynamic": 3.2}, {"smiles": "COc1cc2c(Nc3ncc(CC(=O)Nc4cccc(F)c4)s3)ncnc2cc1OCCCN1CCN(C)CC1", "solubility thermodynamic": 1.8}, {"smiles": "CC(=O)N1CCC(NC(=O)c2ccc(Oc3ccc(C#C[C@]4(O)CN5CCC4CC5)cc3)cc2)CC1", "solubility thermodynamic": 646}, {"smiles": "Oc1cc(-c2ccccc2)nc2ccc(Cl)cc12", "solubility thermodynamic": 5.9}, {"smiles": "CS(=O)(=O)Cc1cc(N2CCOCC2)nc(-c2cccc3[nH]ccc23)n1", "solubility thermodynamic": 12.9}, {"smiles": "CN(C)C(=O)c1cc(-c2nc(N3CCOCC3)cc(C3(S(C)(=O)=O)CC3)n2)c2cc[nH]c2c1", "solubility thermodynamic": 100}, {"smiles": "C[C@@H](c1ccc(-c2ccc(F)cc2F)cc1)N1CC[C@](CCO)(c2ccc(F)cc2)OC1=O", "solubility thermodynamic": 2.5}, {"smiles": "Cc1ccc(Oc2ccc(C(=O)N(C)Cc3ccncc3)cc2)cc1", "solubility thermodynamic": 1.9}, {"smiles": "Cn1nc(C(C)(C)C)cc1C(=O)N[C@@H](Cc1cccc(Cl)c1)C(=O)NCC#N", "solubility thermodynamic": 93.3}, {"smiles": "CO[C@]1(c2cc(F)cc(S(=O)(=O)c3ccc(/C(C)=N/O)cc3)c2)CCO[C@@H](C)C1", "solubility thermodynamic": 4.7}, {"smiles": "COC[C@H](C)Oc1cc(O[C@@H](C)Cc2cc(F)cc(F)c2)cc(C(=O)Nc2ccc(C(=O)O)cn2)c1", "solubility thermodynamic": 646}, {"smiles": "CN(c1ccc(Cl)c(CO)c1)c1ccnc(Nc2cc(N3CCOCC3)cc(N3CCOCC3)c2)n1", "solubility thermodynamic": 3.1}, {"smiles": "CCN(C(=O)Cc1ccc(S(C)(=O)=O)cc1)C1CCN(CCC(c2ccccc2)C2CCN(C(C)=O)CC2)CC1", "note": "(stereo not given)", "solubility thermodynamic": 1510}, {"smiles": "Cc1cnc(NC(=O)c2ccccn2)s1", "solubility thermodynamic": 200}, {"smiles": "COc1cc2nccc(Nc3ccc(Oc4ccccc4)cc3)c2cc1OC", "solubility thermodynamic": 2.6}, {"smiles": "COc1cc2ncnc(Nc3ccc(NC(=O)c4ccccc4)cc3)c2cc1OC", "note": "[ANILINOQUINAZOLINE1]", "solubility thermodynamic": 10}, {"smiles": "CCOC(=O)C1CCN(c2ncnc(Oc3ccc(CCC(C)=O)cc3)c2[N+](=O)[O-])CC1", "solubility thermodynamic": 1.9}, {"smiles": "Cc1c(Cc2ccc3ccccc3n2)c2cc(F)ccc2n1CC(=O)O", "note": "[TIMAPIPRANT]", "solubility thermodynamic": 112}, {"smiles": "CCOc1cccc2c3c([nH]c12)CCN(C(=O)[C@@H]1CCCC[C@H]1C(=O)NC1(C#N)CC1)C3", "solubility thermodynamic": 302}, {"smiles": "CC(C)n1c2ccc(F)cc2c2cc(NC(=O)N3CCOCC3)ccc21", "solubility thermodynamic": 34.7}, {"smiles": "NC(=O)Nc1sc(-c2ccc(Cl)c(Cl)c2)cc1C(=O)N[C@H]1CCCNC1", "solubility thermodynamic": 66.1}, {"smiles": "O=C(CCCCCCC(=O)Nc1ccccc1)NO", "note": "[VORINOSTAT]", "solubility thermodynamic": 1230}, {"smiles": "COc1cccc(NC(=O)Cn2cc(Oc3ccnc4cc(OC)c(OC)cc34)cn2)c1", "solubility thermodynamic": 66.1}, {"smiles": "O=C(c1ccccc1)C1CCN(C(=O)c2cccs2)CC1", "solubility thermodynamic": 79.4}, {"smiles": "CC(C)c1ccc2[nH]c3c(c2c1)CN(C(=O)[C@@H]1CCCC[C@H]1C(=O)NC1(C#N)CC1)CC3", "solubility thermodynamic": 83.2}, {"smiles": "CNC(=O)CCc1nc(-c2ccc(OC)cc2)no1", "solubility thermodynamic": 912}, {"smiles": "COc1ccccc1NC(=O)c1cc2ccccc2cc1O", "solubility thermodynamic": 0.9}, {"smiles": "O=C(O)Cc1cccc(-c2ccc(NC(=O)c3nnc(Nc4ccccc4F)o3)cc2)c1", "solubility thermodynamic": 257}, {"smiles": "CC(C)Cc1nc(-c2ccccc2)c(-c2ccc(CN3CCC(n4c(=O)[nH]c5ccccc54)CC3)cc2)nc1O", "solubility thermodynamic": 1.6}, {"smiles": "O=C1CCC(N2C(=O)c3ccccc3C2=O)C(=O)N1", "note": "(stereo not given) [THALIDOMIDE]", "solubility thermodynamic": 155}, {"smiles": "Oc1ncnc2c1cnn2Cc1ccccc1", "solubility thermodynamic": 158}, {"smiles": "COc1ccc(-c2cc(N)c(C(N)=O)s2)cc1", "solubility thermodynamic": 30.9}, {"smiles": "CN(C)C(=O)COc1cccc2ncnc(Nc3ccc4c(cnn4Cc4ccccn4)c3)c12", "solubility thermodynamic": 10.7}, {"smiles": "O=C(O)c1cc2cc(F)ccc2n1Cc1ccc(Cl)c(Cl)c1", "solubility thermodynamic": 209}, {"smiles": "COCCOc1cc2c(Oc3cnn(CC(=O)Nc4cccc(OC)c4)c3)ncnc2cc1OC", "solubility thermodynamic": 3.1}, {"smiles": "Nc1ccccc1NC(=O)c1ccc(N2CCOCC2)cc1", "solubility thermodynamic": 182}, {"smiles": "CNc1cccc(CCOc2ccc(C[C@H](NC(=O)c3c(Cl)cncc3Cl)C(=O)O)cc2)n1", "solubility thermodynamic": 1350}, {"smiles": "O=C(CC(c1ccccc1)S(=O)(=O)c1ccccc1)c1ccccc1", "note": "(stereo not given)", "solubility thermodynamic": 1.1}, {"smiles": "O=C(c1ccc(F)cc1)C1CCN(C(=O)c2ccc(F)cc2Cl)CC1", "solubility thermodynamic": 14.5}, {"smiles": "N=C(N)Nc1nc(-c2cccc(O)c2)cs1", "solubility thermodynamic": 79.4}, {"smiles": "N#Cc1cccnc1-c1ccc(C(=O)Nc2ccccc2N)cc1", "solubility thermodynamic": 35.5}, {"smiles": "CC(=O)Nc1nc(-c2ccc(Br)s2)cs1", "solubility thermodynamic": 2.2}, {"smiles": "COc1ccc(N2CCNCC2)cc1Nc1ncc(Cl)c(-c2cnc3ccccn23)n1", "solubility thermodynamic": 69.2}, {"smiles": "COc1cc(OC2CCN(C)CC2)c2c(Nc3ccc(F)c(Cl)c3)ncnc2c1", "solubility thermodynamic": 2.1}, {"smiles": "O=C(Nc1cc(Cl)cc2c1[nH]c1cnccc12)c1cccnc1", "solubility thermodynamic": 3.9}, {"smiles": "c1ccc(Nc2ncnc3ccccc23)cc1", "solubility thermodynamic": 132}, {"smiles": "Cc1noc2cc(N3CCN(C(=O)[C@@H]4CCCC[C@H]4C(=O)NC4(C#N)CC4)[C@H](C)C3)ccc12", "solubility thermodynamic": 603}, {"smiles": "N#CC1(NC(=O)[C@@H]2CCCC[C@H]2C(=O)N2CCc3[nH]c4c(C(F)(F)F)cccc4c3C2)CC1", "solubility thermodynamic": 144}, {"smiles": "O=C(Nc1cccnc1)c1ccc(OCCCN2CCCC2)cc1OCc1ccccc1", "solubility thermodynamic": 209}, {"smiles": "CC(C)(C)OC(=O)N1CCC[C@H]1C(=O)Nc1ccc(Br)cc1", "solubility thermodynamic": 23.4}, {"smiles": "Cn1cncc1[C@@](N)(c1ccc(Cl)cc1)c1ccc2c(c1)c(-c1cccc(Cl)c1)cc(=O)n2C", "note": "[TIPIFARNIB]", "solubility thermodynamic": 9.5}, {"smiles": "CCN1C(=O)C(C)(C)c2cc3[nH]c4c(c3cc21)CCCc1c-4n[nH]c1C", "solubility thermodynamic": 0.7}, {"smiles": "CN1CCN(c2ccc3nc(-c4c(N)c5c(F)cccc5[nH]c4=O)[nH]c3c2)CC1", "note": "[DOVITINIB]", "solubility thermodynamic": 8.3}, {"smiles": "O=C(NNc1nc2ccccc2o1)c1ccccc1", "solubility thermodynamic": 129}, {"smiles": "COc1cc2ncnc(Nc3cc(NC(=O)c4ccccc4)c(Cl)cc3F)c2cc1OC", "solubility thermodynamic": 1.9}, {"smiles": "COc1cc2c(Nc3ccc(NC(=O)c4ccccc4)cc3)ncnc2cc1OCCCN1CCOCC1", "solubility thermodynamic": 2.5}, {"smiles": "Nc1ncc(-c2cnn(CCO)c2)cc1-c1nc2ccccc2o1", "solubility thermodynamic": 3.1}, {"smiles": "Nc1nc(Nc2ccc(Cl)cc2)cc(-c2ccccc2)n1", "solubility thermodynamic": 2.2}, {"smiles": "O=C1CSc2ccccc2N1", "solubility thermodynamic": 871}, {"smiles": "CC(C)Oc1cccc(NC(=O)c2ccc3cc(C(=N)N)ccc3c2)c1", "solubility thermodynamic": 64.6}, {"smiles": "O=C(O)c1csc(NC(=O)C(CC2CCCC2)c2ccc(Cl)c(Cl)c2)n1", "note": "(stereo not given)", "solubility thermodynamic": 34.7}]}]}
